In PubChem BioAssay AID588376 (Sanford-Burnham Center for Chemical Genomics, 2011) one finds IC50 data, which are given here for 27 compounds.

Active and inactive are the calls of the source. No rule for the calls is given here.

What is called IC50 is the concentration needed to halve the response being measured.

This assay deals with Bcl-2-related protein A1 (Mus musculus) (UniProt Q07440). In words: Bfl-1 counter-screen inhibitors, SAR follow-up, counter-screen for UBC13 polyubiquitination inhibitor project, biochemical, mouse Bfl-1, set 2 (AID 588376). The settings on record: Bfl-1 biochemical counterscreen, dose response. For orientation: A counterscreen serves to expose hits that act by an unwanted route or on another target.
Chain of Bcl-2-related protein A1 (Mus musculus) (Q07440 whole entry, looked up): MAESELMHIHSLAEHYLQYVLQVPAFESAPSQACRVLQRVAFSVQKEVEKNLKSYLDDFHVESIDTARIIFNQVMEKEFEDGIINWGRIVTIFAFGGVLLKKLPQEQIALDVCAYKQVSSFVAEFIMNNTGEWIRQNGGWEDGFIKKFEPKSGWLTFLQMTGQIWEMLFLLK
`CC1(C)Cc2c(sc(NC(=O)C(=O)NCC3CCCO3)c2C(=O)O)CO1` (configuration not stated): the IC50 is > 100 µM (inactive).
Then `CCOc1ccc(NC(=O)CN2CCC(n3cnc4cc(F)ccc43)CC2)cc1`, with > 100 µM (inactive); and `CC1(C)Cc2c(sc(NC(=O)C(=O)N3CCCC3)c2C(N)=O)CO1`, with > 100 µM (inactive); and `O=C(C1CCN(c2ncnc3c2nc2n3CCCCC2)CC1)N1CCN(Cc2ccccc2)CC1`, with > 100 µM (inactive).
Then `COc1ccc(OC)c(NC(=O)CN2CCC(n3c(C)nc4cc(F)ccc43)CC2)c1`, with > 100 µM (inactive); and `COc1ccccc1N1CCN(CCCNC(=O)C2CCCN(c3ncnc4c3nc3n4CCCCC3)C2)CC1` (configuration not stated), with > 100 µM (inactive); and `O=C(CN1CCC(n2c(C(F)(F)F)nc3cc(F)ccc32)CC1)Nc1ccc2c(c1)OCO2`, with > 100 µM (inactive).
Under `O=C(CN1CCC(n2cnc3cc(F)ccc32)CC1)Nc1cccc(C(F)(F)F)c1` stands > 100 µM (inactive); under `Cc1cccc(NC(=O)CN2CCC(n3cnc4cc(F)ccc43)CC2)c1C`, > 100 µM (inactive); under `O=C(NCCCN1CCN(c2ccc(F)cc2)CC1)C1CCCN(c2ncnc3c2nc2n3CCCCC2)C1` (configuration not stated), > 100 µM (inactive).
Regarding `Cc1cccc(N2CCN(CCCNC(=O)C3CCCN(c4ncnc5c4nc4n5CCCCC4)C3)CC2C)c1` (configuration not stated), the IC50 is > 100 µM (inactive).
Take `COC(=O)c1c(NC(=O)C(=O)NCC2CCCO2)sc2c1CC(C)(C)OC2` (configuration not stated): the IC50 is > 100 µM (inactive).
With `Cc1nc2cc(F)ccc2n1C1CCN(CC(=O)Nc2ccccc2)CC1`, the IC50 was > 100 µM (inactive).
Then `O=C(C1CCN(c2ncnc3c2nc2n3CCCCC2)CC1)N1CCN(c2ccccn2)CC1`, with > 100 µM (inactive).
Then `O=C(c1ccco1)N1CCN(C(=O)C2CCN(c3ncnc4c3nc3n4CCCCC3)CC2)CC1`, with > 100 µM (inactive).
Under `CC1(C)Cc2c(sc(NC(=O)C(=O)NCC3CCCO3)c2C(N)=O)CO1` (configuration not stated) stands > 100 µM (inactive); under `O=C(C1CCN(c2ncnc3c2nc2n3CCCCC2)CC1)N1CCN(c2ncccn2)CC1`, > 100 µM (inactive); under `Cc1ccc(C)c(N2CCN(CCCNC(=O)C3CCCN(c4ncnc5c4nc4n5CCCCC4)C3)CC2)c1` (configuration not stated), > 100 µM (inactive).
Regarding `Cc1nc2ccccc2n1C1CCN(CC(=O)Nc2ccccc2Oc2ccccc2)CC1`, the IC50 was > 100 µM (inactive).
Under `O=C(C1CCN(c2ncnc3c2nc2n3CCCCC2)CC1)N1CCN(c2ccc(F)cc2)CC1` stands > 100 µM (inactive).
Then `COc1ccc(NC(=O)CN2CCC(n3c(C)nc4cc(F)ccc43)CC2)c(OC)c1`, with > 100 µM (inactive); and `CC1(C)Cc2c(sc(NC(=O)C(=O)NCCN3CCOCC3)c2C(N)=O)CO1`, with > 100 µM (inactive).
Under `O=C(CN1CCC(n2cnc3cc(C(F)(F)F)ccc32)CC1)Nc1ccc2c(c1)OCCO2` stands > 100 µM (inactive); under `O=C(CN1CCC(n2cnc3cc(F)ccc32)CC1)Nc1ccccc1Br`, > 100 µM (inactive); under `COc1ccc(OC)c(NC(=O)CN2CCC(n3cnc4cc(F)ccc43)CC2)c1`, > 100 µM (inactive).
As for `O=C(NCCCN1CCN(c2ccccc2)CC1)C1CCCN(c2ncnc3c2nc2n3CCCCC2)C1` (configuration not stated), the IC50 was > 100 µM (inactive).
Under `CCOc1ccccc1NC(=O)CN1CCC(n2cnc3cc(F)ccc32)CC1` stands > 100 µM (inactive).
